Assay results from US9758485B2, “Compounds for controlling arthropods” (priority 2013, dated 2017).

Experiments:
[1] = test system: Musca domestica; experiment: Musca domestica test; format: in vivo; conditions: application rate 100 ppm; adult houseflies; kill after 2 days
Method in brief: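 10 adult flies per vessel; sugar-solution sponge dosed with active ingredient formulation (DMSO concentrate diluted in water to desired concentration). Read-out: % kill at 2 days.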

[2] = test system: Rhipicephalus sanguineus; experiment: Rhipicephalus sanguineus - in vitro contact tests with adult brown dog ticks; format: in vivo
Description: Rhipicephalus sanguineus—In Vitro Contact Tests with Adult Brown Dog Ticks
(§1) For the coating of the test tubes, 9 mg of active ingredient are first dissolved in 1 ml of acetone p.a. and then diluted to the desired concentration with acetone p.a. 250 μl of the solution are distributed homogeneously on the inner walls and base of a 25 ml test tube by turning and rocking on an orbital shaker (rocking rotation at 30 rpm for 2 h). With 900 ppm active ingredient solution and internal surface 44.7 cm^2, given homogeneous distribution, an area-based dose of 5 μg/cm^2 is achieved.
After the solvent has evaporated off, the tubes are populated with 5-10 adult dog ticks (Rhipicephalus sanguineus), sealed with a perforated plastic lid and incubated in a horizontal position in the dark at room temperature and ambient humidity. After 48 h, efficacy is determined. To this end, the ticks are knocked to the floor of the tube and incubated on a hotplate at 45-50° C. for not more than 5 min. Ticks which remain motionless on the floor or move in such an uncoordinated manner that they are unable to deliberately avoid the heat by climbing upwards are considered to be dead or moribund.
An efficacy of 100% means that all the ticks were dead or moribund. 0% efficacy means that none of the ticks had been harmed.

[3] = test system: Boophilus microplus; experiment: Boophilus microplus - injection test; format: in vivo; conditions: application rate 20 μg/animal; injected into engorged adult female ticks; laying of fertile eggs, after 7 days
Method in brief: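 Engorged adult female ticks, five per dose, were injected in the abdomen with 1 μl of active ingredient diluted in dimethyl sulphoxide. Animals were kept in dishes under climate control, and egg fertility was assessed after 7 days.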

[4] = logP determination by HPLC on a reversed-phase column (C18), EEC Directive 79/831 Annex V.A8; format: physicochemical; conditions: for logP^a): HPLC-MS method a), Table I-T3; for logP: HPLC, reversed-phase C18, acetonitrile/water with formic acid, 55° C.
[5] = test system: Ctenocephalides felis; experiment: Ctenocephalides felis - oral test; format: in vivo; conditions: application rate 100 ppm in citrated cattle blood; adult fleas; kill after 2 days
Method in brief: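 DMSO stock, diluted in citrated cattle blood; ~20 unfed adult fleas feed through parafilm; % kill read at day 2 (0% = none killed).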

[6] = test system: Lucilia cuprina; experiment: Lucilia cuprina test; format: in vivo; conditions: application rate 100 ppm; L1 larvae in minced horsemeat; kill after 2 days
Method in brief: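 Mortality (%) of first-instar blowfly larvae, about 20 per vessel, recorded 2 days after exposure to compound-treated minced horsemeat. Compound dissolved in dimethyl sulphoxide, then water-diluted to the desired concentration.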

[7] = test system: Ctenocephalides felis; experiment: Ctenocephalides felis - in vitro contact tests with adult cat fleas; format: in vivo; conditions: application rate 5 μg/cm^2 (=500 g/ha), after 48 h (dead or moribund)
Description: Ctenocephalides felis—In Vitro Contact Tests with Adult Cat Fleas
as §1, with “surface area” for “surface”
After the solvent has evaporated off, the tubes are populated with 5-10 adult cat fleas (Ctenocephalides felis), sealed with a perforated plastic lid and incubated in a horizontal position at room temperature and ambient humidity. After 48 h, efficacy is determined. To this end, the test tubes are stood upright and the fleas are knocked to the base of the tube. Fleas which remain motionless at the base or move in an uncoordinated manner are considered to be dead or moribund.
100% efficacy means that all the fleas were dead or moribund. 0% efficacy means that no fleas were harmed.

[8] = test system: Boophilus microplus Parkhurst strain, SP-resistant; experiment: Boophilus microplus - dip test; format: in vivo; conditions: application rate 100 ppm; dip of engorged adult female ticks; laying of fertile eggs, after 7 days
Description: Boophilus microplus—Dip Test
Test animals: cattle ticks (Boophilus microplus) Parkhurst strain, SP-resistant
Solvent: dimethyl sulphoxide
10 mg of active ingredient are dissolved in 0.5 ml of dimethyl sulphoxide. For the purpose of producing a suitable formulation, the active ingredient solution is diluted with water to the concentration desired in each case.
This active ingredient formulation is pipetted into tubes. 8-10 adult engorged female cattle ticks (Boophilus microplus) are transferred into a further tube with holes. The tube is immersed into the active ingredient formulation, and all the ticks are completely wetted. After the liquid has run out, the ticks are transferred on filter discs into plastic dishes and stored in a climate-controlled room.
Efficacy is assessed after 7 days by laying of fertile eggs. Eggs which are not visibly fertile are stored in a climate-controlled cabinet until the larvae hatch after about 42 days. An efficacy of 100% means that none of the ticks has laid any fertile eggs; 0% means that all the eggs are fertile.

[9] = application rate 5 μg/cm^2, after 48 h (dead or moribund)
[10] = HPLC-MS, reversed-phase column (C18)
[11] = HPLC on reversed-phase column (C18)

logP [4]	Compound	efficacy [1] [%]	efficacy [2, 9] [%]	efficacy [3] [%]	logP^a) [4]	efficacy [5] [%]	efficacy [6] [%]	efficacy [7] [%]	efficacy [8] [%]	log P [4, 10]	efficacy ([2]; application rate 1 μg/cm^2, after 48 h (dead or moribund)) [%]	log P [4, 11]
	CCc1cc(C(F)(C(F)(F)F)C(F)(F)F)ccc1-n1cc(-c2ccc(Cl)c(C(=O)NC3(C#N)CC3)c2)cn1 [I-T3-38]	100	80	100	4.5	100	100					
	CCc1cc(C(F)(C(F)(F)F)C(F)(F)F)cc(C)c1-n1cc(-c2ccc(Cl)c(C(=O)NC3(C#N)CC3)c2)cn1 [I-T3-46]	100	100	100	4.6	100	100	100				
	CCc1cc(C(F)(C(F)(F)F)C(F)(F)F)cc(C)c1-n1cc(-c2ccc(Cl)c(C(=O)NC3CSC3)c2)cn1 [I-T3-47]		100	100	5.0	100	100					
	O=C(NC1CC1)c1cc(-c2cnn(-c3ccc(C(F)(C(F)(F)F)C(F)(F)F)cc3C(F)(F)F)c2)ccc1Cl [I-T3-52]	100	100	100	4.3	100	100					
	CCc1cc(C(F)(F)C(F)(F)F)cc(C)c1-n1cc(-c2ccc(Cl)c(C(=O)NC3(C#N)CC3)c2)cn1 [I-T3-80]	100	80	100	4.2	100	100	100	80			
	O=C(NC1CC1)c1cc(-c2cnn(-c3c(Cl)cc(OC(F)(F)F)cc3Cl)c2)ccc1Cl [I-T3-88]	80	80	100	3.6	100	100	100				
	O=C(NC1CC1)c1cc(-c2cnn(-c3ccc(OC(F)(F)F)cc3Cl)c2)ccc1Cl [I-T3-90]	90	100	100	3.6	100	100					
	Cc1ncc(-c2cnn(-c3c(Cl)cc(C(F)(C(F)(F)F)C(F)(F)F)cc3Cl)c2)cc1C(=O)N(C)C1CC1 [I-T3-133]	100		100		100	100	100	100	3.7		
	COc1ncc(-c2cnn(-c3c(C)cc(C(F)(C(F)(F)F)C(F)(F)F)cc3C)c2)cc1C(=O)NC1(C#N)CC1 [I-T3-141]	100		100		100	100			4.4	100	
	COc1ncc(-c2cnn(-c3c(C)cc(C(F)(C(F)(F)F)C(F)(F)F)cc3C)c2)cc1C(=O)NC1CC1 [I-T3-143]	100	80	100		100	100	100		4.6		
	O=C(NC1CC1)c1cc(-c2cnn(-c3c(Br)cc(C(F)(C(F)(F)F)C(F)(F)F)cc3C(F)(F)F)c2)cnc1Cl [I-T3-160]	100	100	100		100	100	100	100	4.0		
	N#CC1(NC(=O)c2cc(-c3cnn(-c4c(Br)cc(C(F)(C(F)(F)F)C(F)(F)F)cc4C(F)(F)F)c3)cnc2Cl)CC1 [I-T3-165]	100	100	100		100	100	100	100	3.9		
	Cc1cc(C(F)(C(F)(F)F)C(F)(F)F)cc(I)c1-n1cc(-c2ccc(Cl)c(C(=O)NC3CC3)c2)cn1 [I-T3-175]	100	100	100		100	100	100	100	4.5		
	Cc1cc(C(F)(C(F)(F)F)C(F)(F)F)cc(I)c1-n1cc(-c2ccc(Cl)c(C(=O)NC3(C#N)CC3)c2)cn1 [I-T3-176]	100	100	100		100	100	100	100	4.4		
	O=C(NC1CC1)c1cc(-c2cnn(-c3c(Cl)cc(C(F)(C(F)(F)F)C(F)(F)F)cc3OC(F)(F)F)c2)cnc1Cl [I-T3-189]	100	100			100	100	100				4.3
	O=C(NC1CC1)c1cc(-c2cnn(-c3c(Cl)cc(C(F)(C(F)(F)F)C(F)(F)F)cc3OC(F)F)c2)cnc1Cl [I-T3-196]		100					100				3.9
4.4	Cc1cc(C(F)(C(F)(F)F)C(F)(F)F)cc(C(F)(F)F)c1-c1cc(-c2cnc(Cl)c(C(=O)NC3(C#N)CC3)c2)on1 [I-T22-4]		100	100		100			100			
4.9	Cc1cc(C(F)(C(F)(F)F)C(F)(F)F)cc(C(F)(F)F)c1-c1cc(-c2ccc(Cl)c(C(=O)NC3CC3)c2)on1 [I-T22-5]	100	100	100		100	100	100	100			
4.5	Cc1cc(C(F)(C(F)(F)F)C(F)(F)F)cc(C(F)(F)F)c1-c1cc(-c2cnc(Cl)c(C(=O)NC3CC3)c2)on1 [I-T22-6]	90	100	100		95	100		100			

Compound	logP [4]	efficacy [1] [%]	efficacy [2, 9] [%]	efficacy [3] [%]	logP^a) [4]	efficacy [5] [%]	efficacy [6] [%]	efficacy [7] [%]	efficacy [8] [%]	log P [4, 10]	efficacy ([2]; application rate 1 μg/cm^2, after 48 h (dead or moribund)) [%]	log P [4, 11]
Cc1cc(C(F)(C(F)(F)F)C(F)(F)F)cc(C)c1-c1cnn(-c2ccc(Cl)c(C(=O)NC3(C#N)CC3)c2)c1 [I-T4-2]	4.6	100	100	100		100	100	100				
